Results as given in PubChem BioAssay AID1918996 (Molecular Pharmacology Branch, DTP, NCI, 2023).

Test system: 349418-098-R-PDC complex spheroid growth
Test: Anticancer human tumor 349418-098-R-PDC patient-derived lung adenocarcinoma cell line growth inhibition [AhR]
Details: for IC50: curve of first compound; for viability, T/C: stronger effect = lower value
Summary of the method: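 Complex tumor spheroids co-cultured with HUVEC and human MSC stroma; AhR antagonists tested in combination with standard-of-care and investigational agents. Top concentration at or near clinical Cmax (else 10 microM), half-log dilutions; growth expressed as percent test/control.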

[1] = second compound 0.1 µM, first compound 0.00949 µM
[2] = second compound 0.1 µM, first compound 0.03 µM
[3] = second compound 0.1 µM, first compound 0.0949 µM
[4] = second compound 0.1 µM, first compound 0.3 µM
[5] = second compound 0.316 µM, first compound 0.00949 µM
[6] = second compound 0.316 µM, first compound 0.03 µM
[7] = second compound 0.316 µM, first compound 0.0949 µM
[8] = second compound 0.316 µM, first compound 0.3 µM
[9] = second compound 1 µM, first compound 0.00949 µM
[10] = second compound 1 µM, first compound 0.03 µM
[11] = second compound 1 µM, first compound 0.0949 µM
[12] = second compound 1 µM, first compound 0.3 µM
[13] = second compound 3.16 µM, first compound 0.00949 µM
[14] = second compound 3.16 µM, first compound 0.03 µM
[15] = second compound 3.16 µM, first compound 0.0949 µM
[16] = second compound 3.16 µM, first compound 0.3 µM
[17] = second compound 10 µM, first compound 0.00949 µM
[18] = second compound 10 µM, first compound 0.03 µM
[19] = second compound 10 µM, first compound 0.0949 µM
[20] = second compound 10 µM, first compound 0.3 µM
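Further: spheroids exposed to agents for seven days before luminescence viability read.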
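Wherever viability, T/C is given: spheroids also contain HUVEC endothelial cells and human MSC stroma.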

Structure (SMILES): CC1COCCN1c1cc(C2(S(C)(=N)=O)CC2)nc(-c2ccnc3[nH]ccc23)n1 (stereo not given) + CC(CO)NC(=O)c1cc(-c2ccc(Cl)cc2)nn(-c2cnn(C)c2)c1=O
- IC50 (second compound 0.1 µM): 1530 nM
- IC50 (second compound 0.316 µM): 1710 nM
- IC50 (second compound 1 µM): 1410 nM
- IC50 (second compound 3.16 µM): 750 nM
- IC50 (second compound 10 µM): 1270 nM
- viability, T/C (second compound 0.1 µM, first compound 0.0316 µM): 84.5%
- viability, T/C (second compound 0.1 µM, first compound 0.1 µM): 71.8%
- viability, T/C (second compound 0.1 µM, first compound 0.316 µM): 69.6%
- viability, T/C (second compound 0.1 µM, first compound 1 µM): 65.7%
- viability, T/C (second compound 0.1 µM, first compound 3.16 µM): 24.4%
- viability, T/C (second compound 0.1 µM, first compound 10 µM): 12.5%
- viability, T/C (second compound 0.316 µM, first compound 0.0316 µM): 70%
- viability, T/C (second compound 0.316 µM, first compound 0.1 µM): 80.7%
- viability, T/C (second compound 0.316 µM, first compound 0.316 µM): 66.8%
- viability, T/C (second compound 0.316 µM, first compound 1 µM): 73.2%
- viability, T/C (second compound 0.316 µM, first compound 3.16 µM): 24.2%
- viability, T/C (second compound 0.316 µM, first compound 10 µM): 10.4%
- viability, T/C (second compound 1 µM, first compound 0.0316 µM): 67.6%
- viability, T/C (second compound 1 µM, first compound 0.1 µM): 89.1%
- viability, T/C (second compound 1 µM, first compound 0.316 µM): 85.2%
- viability, T/C (second compound 1 µM, first compound 1 µM): 59%
- viability, T/C (second compound 1 µM, first compound 3.16 µM): 25.7%
- viability, T/C (second compound 1 µM, first compound 10 µM): 12.5%
- viability, T/C (second compound 3.16 µM, first compound 0.0316 µM): 83.9%
- viability, T/C (second compound 3.16 µM, first compound 0.1 µM): 55.9%
- viability, T/C (second compound 3.16 µM, first compound 0.316 µM): 78.9%
- viability, T/C (second compound 3.16 µM, first compound 1 µM): 42.4%
- viability, T/C (second compound 3.16 µM, first compound 3.16 µM): 21.4%
- viability, T/C (second compound 3.16 µM, first compound 10 µM): 13.4%
- viability, T/C (second compound 10 µM, first compound 0.0316 µM): 59.1%
- viability, T/C (second compound 10 µM, first compound 0.1 µM): 56.9%
- viability, T/C (second compound 10 µM, first compound 0.316 µM): 59.8%
- viability, T/C (second compound 10 µM, first compound 1 µM): 57.7%
- viability, T/C (second compound 10 µM, first compound 3.16 µM): 20.2%
- viability, T/C (second compound 10 µM, first compound 10 µM): 11.7%

Structure (SMILES): Nc1ncn(C2CC(O)C(CO)S2)c(=O)n1 (stereo not given) + CC(CO)NC(=O)c1cc(-c2ccc(Cl)cc2)nn(-c2cnn(C)c2)c1=O
- IC50 (second compound 0.1 µM): 87.6 nM
- IC50 (second compound 0.316 µM): 32.4 nM
- IC50 (second compound 1 µM): 45.7 nM
- IC50 (second compound 3.16 µM): 24.9 nM
- IC50 (second compound 10 µM): 19.9 nM
- viability, T/C (second compound 0.1 µM, first compound 0.000949 µM): 86.5%
- viability, T/C (second compound 0.1 µM, first compound 0.003 µM): 85.5%
- viability, T/C [1]: 56.2%
- viability, T/C [2]: 62.2%
- viability, T/C [3]: 60.8%
- viability, T/C [4]: 31.9%
- viability, T/C (second compound 0.316 µM, first compound 0.000949 µM): 72.6%
- viability, T/C (second compound 0.316 µM, first compound 0.003 µM): 118%
- viability, T/C [5]: 68.8%
- viability, T/C [6]: 52.6%
- viability, T/C [7]: 47.8%
- viability, T/C [8]: 27.4%
- viability, T/C (second compound 1 µM, first compound 0.000949 µM): 96.4%
- viability, T/C (second compound 1 µM, first compound 0.003 µM): 68.9%
- viability, T/C [9]: 90.5%
- viability, T/C [10]: 53.7%
- viability, T/C [11]: 37.8%
- viability, T/C [12]: 21.4%
- viability, T/C (second compound 3.16 µM, first compound 0.000949 µM): 86.1%
- viability, T/C (second compound 3.16 µM, first compound 0.003 µM): 58%
- viability, T/C [13]: 66.5%
- viability, T/C [14]: 47%
- viability, T/C [15]: 39.9%
- viability, T/C [16]: 24.2%
- viability, T/C (second compound 10 µM, first compound 0.000949 µM): 53.5%
- viability, T/C (second compound 10 µM, first compound 0.003 µM): 71.8%
- viability, T/C [17]: 60%
- viability, T/C [18]: 43.1%
- viability, T/C [19]: 33.3%
- viability, T/C [20]: 24.5%

Structure (SMILES): O=C(C=Cn1cnc(-c2cc(C(F)(F)F)cc(C(F)(F)F)c2)n1)NNc1cnccn1 + CC(CO)NC(=O)c1cc(-c2ccc(Cl)cc2)nn(-c2cnn(C)c2)c1=O
- IC50 (second compound 0.1 µM): < 9.49 nM
- IC50 (second compound 0.316 µM): < 9.49 nM
- IC50 (second compound 1 µM): 16.9 nM
- IC50 (second compound 3.16 µM): < 9.49 nM
- IC50 (second compound 10 µM): < 9.49 nM
- viability, T/C [1]: 44.2%
- viability, T/C [2]: 32.1%
- viability, T/C [3]: 18%
- viability, T/C [4]: 9.7%
- viability, T/C (second compound 0.1 µM, first compound 0.949 µM): 8.06%
- viability, T/C (second compound 0.1 µM, first compound 3 µM): 6.68%
- viability, T/C [5]: 42.7%
- viability, T/C [6]: 34.2%
- viability, T/C [7]: 22.2%
- viability, T/C [8]: 10.9%
- viability, T/C (second compound 0.316 µM, first compound 0.949 µM): 7.86%
- viability, T/C (second compound 0.316 µM, first compound 3 µM): 5.14%
- viability, T/C [9]: 62.4%
- viability, T/C [10]: 37.9%
- viability, T/C [11]: 20.1%
- viability, T/C [12]: 11.7%
- viability, T/C (second compound 1 µM, first compound 0.949 µM): 9.27%
- viability, T/C (second compound 1 µM, first compound 3 µM): 5.79%
- viability, T/C [13]: 48%
- viability, T/C [14]: 43.3%
- viability, T/C [15]: 18.6%
- viability, T/C [16]: 9.44%
- viability, T/C (second compound 3.16 µM, first compound 0.949 µM): 7.82%
- viability, T/C (second compound 3.16 µM, first compound 3 µM): 5.81%
- viability, T/C [17]: 36.1%
- viability, T/C [18]: 34.6%
- viability, T/C [19]: 18.9%
- viability, T/C [20]: 8.82%
- viability, T/C (second compound 10 µM, first compound 0.949 µM): 7.38%
- viability, T/C (second compound 10 µM, first compound 3 µM): 6.61%
